We go through 1 compound from patent US9233095B2, “Small molecule RNase inhibitors and methods of use” (University of Rochester, priority 2011, dated 2016).

Structures are written as SMILES. “And” between values parts separate entries of the source, which are not always exact repeats. Equal values may be shown once.

In general, ED50 refers to the midpoint of the dose-response relation.

For one series, the system named is S. aureus strain Smith. Kind of series: acute lethal model of infection. Type of series: in vivo, CD-1 mice. To be noted: for % Survival: 5 days, one value per experiment. The protocol: Because RNPA1000 was not toxic during short- and only mildly toxic during extended-HepG2 exposure, it could serve as an appropriate tool to assess whether RnpA-inhibitory molecules are efficacious in a systemic mouse infection model. […] RNPA1000 was solubilized in 1:1 mixture of DMSO and PEG400; Vancomycin was prepared in water. Animals (5/dose group) were administered 16, 64, and 256 mg/kg or 0.25, 1, 4, and 16 mg/kg of RNPA1000 or Vancomycin, respectively, at 30 min post infection by subcutaneous injection (0.2 ml). The percent surviving animals receiving no treatment, a single dose of Vancomycin, or RnpA-inhibitor was recorded daily over the course of the study (5 days).
Percent survival refers to a consensus of surviving animals following 5 days post-intraperitoneal S. aureus injection and RNPA1000 administration. The number in parentheses indicates the number of times the experiment was repeated. Each member of non-treated control mice expired within 24 hr bacterial inoculation (0 mg/kg). Vancomycin served as a positive control.

Series [1] concerns S. aureus cellular mRNA degradation. Briefly: GeneChip mRNA turnover of RNPA1000 challenged cells. The settings on record: 0.5× MIC, 30 min treatment, versus mock treated cells. In kind it is cell-based. The protocol: For half life determinations, S. aureus strain UAMS-1, RN4220 (pCN51; plasmid containing CdCl2 inducible promoter), RN4220 (pRNPA; pCN51 capable of producing full length rnpA mRNA), or RN4220 (pRNPA-A.S.; pCN51 capable of producing rnpA antisense RNA) were grown to mid-exponential or stationary phase, transcription was arrested by the addition of rifampin (200 μg/ml), and aliquots were removed at 0-, 2.5-, 5-, 15- and 30-min post-transcriptional arrest for strain UAMS-1. To conserve reagents, aliquots were removed at 0 and 10 min post-transcriptional arrest for RN4220 derivatives. Plating ensured cultures had not developed rifampin resistance. Each strain and/or growth phase was assessed twice, except for RN4220 pRNPA-A.S. cells which were assessed four times. RNA was isolated from each aliquot, labeled, hybridized to an S. aureus GeneChip (Affymetrix; Santa Clara, Calif.), duplicates were averaged, and the mRNA half-lives of all mRNA species were determined, as previously described (see Anderson et al., J Bacteriol, 188: 6739-6756 (2006); Roberts et al., J Bacteriol, 188: 2593-2603 (2006)). […] Transcript synthesis was then arrested and the transcript titers of mRNA species were measured at 0- and 5-min post-transcriptional arrest (see Anderson et al., J Bacteriol, 188: 6739-6756 (2006); Roberts et al., J Bacteriol, 188: 2593-2603 (2006)). […]

Series [2] relates to biofilm-associated S. aureus strain UAMS-1. Briefly: in vitro catheter biofilm assay. Type of series: cell-based. The protocol:
To determine this, in vitro biofilm assays were performed as described in Weiss et al., Antimicrob Agents Chemother, 53: 2475-2482 (2009). Briefly, 1 cm segments of 14-gauge fluorinated ethylene propylene Introcan Safety Catheters (B. Braun, Bethlehem, Pa.) were coated with human plasma and placed in individual wells of a 12-well microtiter plate containing 2 ml biofilm medium and S. aureus strain UAMS-1 at a final OD600 nm of 0.05. Following overnight incubation at 37° C. catheters were removed, rinsed in phosphate buffered saline (PBS), and transferred to fresh biofilm medium containing 0, 5, 10, or 20 times the S. aureus MIC for RNPA1000. Catheters exposed to each dose (n=3) were recovered daily over a period of 3 days, with the medium being replaced each day. After each recovery time point catheters were rinsed in PBS and adherent bacteria were enumerated by sonication and plating. Analysis of variance (ANOVA) of logarithmically-transformed bacterial count data was used to evaluate the effect of RNPA1000 exposure.

In the next series the test system is HepG2 human hepatocytes. Kind of series: MTT cytotoxicity assay. Type of series: cell-based. The settings on record: for HepG2 cell toxicity: 24 hr exposure, any concentration tested (25, 50 μg/ml); for HepG2 cytotoxicity: 48 hr exposure. The protocol:
It was then assessed whether RnpA-inhibitory agent concentrations corresponding to the effective bacterial MIC values (10-50 μg/ml) elicited human cell cytotoxicity. HepG2 human hepatocytes (10^5 cells) were seeded in individual wells of a microtitre plate and incubated for 16 hr at 37° C. with 5% carbon dioxide in Dulbecco's Modified Eagle Media supplemented with 10% fetal bovine serum. Cells were then challenged with Mitomycin C (5 μg/ml; positive control) or 0, 25, or 50 μg/ml RNPA1000 for either 24 or 48 hrs. Cell viability was measured spectrophotometrically (570 nm) following the addition and subsequent reduction of tetrazolium salt (MTT) within metabolically active cells, as per the manufacturer's recommendations (American Type Culture Collection; Manassas, Va.).

Turning to `Cc1cc(/C=C(/C#N)C(=O)Nc2cccc(Br)c2)c(C)n1-c1ccc(C(=O)O)cc1` [RNPA1000], the “% Survival” value in the series on S. aureus strain Smith (RNPA1000 16 mg/kg s.c. 30 min post infection) is 20; 20(2) %; in the series on S. aureus strain Smith (RNPA1000 64 mg/kg s.c. 30 min post infection, 64 mg/kg), 40%; with S. aureus strain Smith (RNPA1000 256 mg/kg s.c. 30 min post infection, 256 mg/kg), 60% and 40%. Besides, the ED50 in the series with S. aureus strain Smith (Staphylococcus aureus, in Mus musculus, sc, single dose, read-out: median effective dose (ED50)) was in the range of 64 to 256 mg/kg. In addition, the “mRNA degradation rate of S. aureus cells” value in series [1] is “reduced the mRNA degradation rate”. In addition, in series [2] (5, 10 or 20× MIC, up to 3 days), the bacterial clearance entry is listed as “never achieved”. The “decrease in bacterial burden” value in series [2] (5× MIC for 24 hr) stood at 3 log. For the same compound, the “maximal reduction in biofilm-associated bacteria” value in series [2] (up to 20× MIC, up to 3 days) was 5 log. The HepG2 cell toxicity result in the series on HepG2 human hepatocytes is listed as “not toxic”; with HepG2 human hepatocytes (listed as RNP1000) it was “did not cause human HepG2 cell toxicity”. In addition, the HepG2 cytotoxicity result in the series on HepG2 human hepatocytes (25 μg/ml) is reported as “mildly toxic”; in the series on HepG2 human hepatocytes (25 μg/ml, listed as RNP1000), “mild cytotoxicity”; with HepG2 human hepatocytes (higher concentrations than 25 μg/ml), “increased toxicity”.
